Experimental data published in PubChem BioAssay AID624166 (Johns Hopkins Ion Channel Center, 2012).
pEC50: −log10 of the molar value. Activity calls are given as the source filed them.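 Rule for the calls: active = raises the calcium signal in non-induced parental cells at some tested dose and a dose-response curve can be fitted; inactive = no activation at any dose, or no dose-response curve.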

Assays:
[1] = system: HEK293 M3R non-induced RGS4, carbachol calcium Fluo4; test: M3R signalling without RGS4 expression – cell-based, HEK293 M3R, non-induced RGS4, SAR compounds, counter-screen for RGS4 potentiator project, SAR follow-up (AID 624166)
[2] = as above; conditions: HEK293 M3R non-induced RGS4, carbachol calcium Fluo4; at 33.3 µM (top of the series)

Compound	pEC50 [1]	calcium response, lower = inhibition [2]
COC(=O)c1cccc(Nc2nc(-c3cccnc3)nc3ccccc23)c1	5.24	–
CN(Cc1ccc(F)cc1)C(=O)C(c1ccccc1)c1ccccc1	5.50	–
CCCCn1c(-c2csc(CCC)c2)n[nH]c1=S	5.48	–
S=c1[nH]nc(-c2ccc(Cl)cc2)n1CC1CCCO1 (stereo not drawn)	5.12	–
O=C(CNC1CCCCCC1)Nc1ccc(S(=O)(=O)NC2CC2)cc1	–	19.6 (inactive)
O=C(CNc1ccccc1)c1ccc([N+](=O)[O-])cc1	–	24.6 (inactive)
CCn1cc(CN2CCC(n3nccc3NC(=O)c3ccc(OC)cc3)CC2)cn1	5.03	–
CC(C)Cn1c(-c2ccc(F)cc2)n[nH]c1=S	5.39	–
O=C(Nc1ccccc1N1CCN(C(=O)c2ccccc2)CC1)c1ccc(Cl)o1	–	17.2 (inactive)
CCN1CCCC1CNCc1ccccc1OCc1ccc(F)cc1 (stereo not drawn)	4.97	–
Cc1ccc(S(=O)(=O)c2ccc(Oc3cccc(C)c3)cc2)cc1	5.57	–
COC(=O)C1CCCN(C(=O)c2cc(-c3ccc(C)cc3)nc3ccccc23)C1 (stereo not drawn)	4.79	–
Cc1ccc(NC(=O)c2cc(-c3cccs3)nc3ccccc23)nc1	–	52.7 (inactive)
